# Read-outs that look alike come from different tables or passages of the source.
# B1: IFN-γ: interferon (IFN)-γ, a known JAK1 activator (protein, UniProt P01579 24-161, looked up)
# Interferon gamma: QDPYVKEAENLKKYFNAGHSDVADNGTLFLGILKNWKEESDRKIMQSQIVSFYFKLFKNFKDDQSIQKSVETIKEDMNVKFFNSNKKKRDDFEKLTNYSVTDLNVQRKAIHELIQVMAELSPAAKTGKRKRSQMLFRG
# Columns and labels:
# [1] = system: NAGS; type: cell-based, human
# [2] = system: calcium channel; conditions: cited from earlier work
# [3] = biological target: RARγ (Homo sapiens, UniProt P13631); conditions: cited from earlier work
# [4] = biological target: RARβ (Homo sapiens, UniProt P10826); conditions: cited from earlier work
# [5] = biological target: RARα (Homo sapiens, UniProt P10276); conditions: cited from earlier work
# [6] = system: CPS1; assay: RNA-seq of compound-treated primary human hepatocytes, CPS1 expression; type: cell-based; conditions: primary human hepatocytes; for CPS1 expression, Fold change (Log 2) vs untreated: RNA-seq
# [7] = system: OTC; assay: RNA-seq of compound-treated primary human hepatocytes, OTC expression; type: cell-based; conditions: for OTC expression, Fold change (Log 2) vs untreated: RNA-seq
# [8] = system: ASS1; assay: RNA-seq of compound-treated primary human hepatocytes, ASS1 expression; type: cell-based
# [9] = system: ASL; assay: RNA-seq of compound-treated primary human hepatocytes, ASL expression; type: cell-based; conditions: primary human hepatocytes
# [10] = system: ARG1; assay: RNA-seq of compound-treated primary human hepatocytes, ARG1 expression; type: cell-based; conditions: for Fold change (Log 2) vs untreated, ARG1 expression: primary human hepatocytes, RNA-seq (Table 7)
# [11] = system: SLC25A15; assay: RNA-seq of compound-treated primary human hepatocytes, SLC25A15 expression; type: cell-based; conditions: primary human hepatocytes, RNA-seq (Table 8)
# [12] = system: urea cycle genes; assay: RNA-seq of primary human hepatocytes, compounds that modulate multiple urea cycle-related genes; type: cell-based; conditions: primary human hepatocytes, RNA-seq
# [13] = biological target: PDGFRα (Homo sapiens, UniProt P16234); conditions: cited from earlier work
# [14] = biological target: PDGFRβ (Homo sapiens, UniProt P09619); conditions: cited from earlier work
# [15] = biological target: PKCβ (Homo sapiens, UniProt P05771); conditions: cited from earlier work
# [16] = biological target: PKCα (Homo sapiens, UniProt P17252); conditions: cited from earlier work
# [17] = biological target: PKCγ (Homo sapiens, UniProt P05129); conditions: cited from earlier work
# [18] = biological target: PKCδ (Homo sapiens, UniProt Q05655); conditions: cited from earlier work
# [19] = biological target: c-Met (Homo sapiens, UniProt P08581); conditions: cited from earlier work
# [20] = biological target: PDK1 (Homo sapiens, UniProt O15530); conditions: cited from earlier work
# [21] = system: LXR; conditions: cited from earlier work
# [22] = biological target: mTOR (Homo sapiens, UniProt P42345); conditions: cited from earlier work
# [23] = system: Bcr-Abl (wildtype); conditions: cited from earlier work
# [24] = system: Bcr-Abl (T315I); conditions: cited from earlier work
# [25] = system: OTC; assay: siRNA SMARTpool transfection of primary human hepatocytes, OTC qPCR (Table 3B); type: cell-based; conditions: siRNA 10 nM, 48 hrs, vs non-targeting siRNA
# Experimental: Primary human hepatocytes were reversed transfected with 6 pmol siRNA using RNAiMAX Reagent (ThermoFisher Cat No13778030) in 24 well format, 1 ul per well (for a final cone of 10 nM). The following morning, the medium was removed and replaced with Modified Maintenance Medium (see above) for an additional 24 hrs. The entire treatment lasted 48 hrs, at which point the medium was removed and replaced with RLT Buffer for RNA extraction (Qiagen RNeasy 96 QIAcube HT Kit Cat #74171). siRNAs were obtained from Dharmacon and are a pool of four siRNA duplex all designed to target distinct sites within the specific gene of interest (known as “SMARTpool”). They were tested against the control non-targeting siRNA D-001206-13-05.
# Isolated RNA was processed for cDNA synthesis and qPCR as described above. Taqman assay used for OTC measurement: Hs00166892_ml
# [26] = system: OTC; assay: siRNA knockdown of JAK/STAT/IRF genes in hepatocytes, OTC mRNA; type: cell-based, human; conditions: 10 nM siRNA plus 0.03 nM JAK1 siRNA, FIG. 27C
# Text: To confirm that JAK1 inhibition is necessary for OTC and CPS1 gene expression increase, JAK1, JAK2, and JAK3 expression was knocked down using the siRNA methods previously described in Example 1 (JAK1 siRNA Dharmacon #M-003145-02-0005; JAK2 siRNA Dharmacon #M-003146-02-0005; JAK3 siRNA Dharmacon #M-003147-01-0005). The cells were harvest for mRNA collection and quantification as previously described.
# In addition, STAT5B is a JAK1 signal transducer and transcription factor activated by JAK1. STAT5B was knocked down in hepatocytes using siRNA (Dharmacon cat #M-010539-02-0005) as previously described in Example 1. The cells were harvest for mRNA collection and quantification as previously described.
# To confirm the role of JAK1 and investigate the role of other signaling proteins and transcription factors in OTC and CPS1 expression, a panel of additional genes were knocked down with siRNA alone or in combination with JAK1. In particular, JAK2 was knockdown alone or in combination with JAK1. The combinations are shown in FIG. 26A and FIG. 26B. siRNA used to knock down JAK1 and JAK2 were: JAK1 siRNA Dharmacon #M-003145-02-0005; JAK2 siRNA Dharmacon #M-003146-02-0005. OTC and CPS1 mRNA expression was normalized to B2M. The assay was performed in triplicate in three donor hepatocyte cell lines: 371, 171, and 511A.
# Cells were harvested after siRNA treatment for mRNA quantification. JAK1, OTC, and CPS1 mRNA levels were normalized to GUSB.
# [27] = system: OTC; assay: Hepatocytes incubated with increasing concentrations of IFN-γ, OTC gene expression; type: cell-based, human
# Experimental: To further assess the link between JAK1 and the urea cycle genes, hepatocytes were incubated with increasing concentrations of interferon (IFN)-γ, a known JAK1 activator. The cells were harvested for mRNA collection and OTC gene expression was determined as previously described.
# [28] = primary human hepatocytes, RNA-seq (Table 6)
# [29] = Example 11, relative mRNA vs DMSO
# RARα, sequence (P10276 whole entry, species assumed): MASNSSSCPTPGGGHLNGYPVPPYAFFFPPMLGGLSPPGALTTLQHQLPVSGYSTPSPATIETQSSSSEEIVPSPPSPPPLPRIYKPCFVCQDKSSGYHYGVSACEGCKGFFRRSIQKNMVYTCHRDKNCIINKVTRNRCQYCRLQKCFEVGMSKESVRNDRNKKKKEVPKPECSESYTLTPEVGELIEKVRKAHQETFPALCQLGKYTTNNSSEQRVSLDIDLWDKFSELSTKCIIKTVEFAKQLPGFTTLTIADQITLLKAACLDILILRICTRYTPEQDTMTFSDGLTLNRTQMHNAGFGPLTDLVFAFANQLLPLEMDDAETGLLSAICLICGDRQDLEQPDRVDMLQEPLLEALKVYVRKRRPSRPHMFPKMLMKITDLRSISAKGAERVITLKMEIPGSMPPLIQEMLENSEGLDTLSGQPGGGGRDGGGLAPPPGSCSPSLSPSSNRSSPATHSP
# RARγ, sequence (P13631 whole entry): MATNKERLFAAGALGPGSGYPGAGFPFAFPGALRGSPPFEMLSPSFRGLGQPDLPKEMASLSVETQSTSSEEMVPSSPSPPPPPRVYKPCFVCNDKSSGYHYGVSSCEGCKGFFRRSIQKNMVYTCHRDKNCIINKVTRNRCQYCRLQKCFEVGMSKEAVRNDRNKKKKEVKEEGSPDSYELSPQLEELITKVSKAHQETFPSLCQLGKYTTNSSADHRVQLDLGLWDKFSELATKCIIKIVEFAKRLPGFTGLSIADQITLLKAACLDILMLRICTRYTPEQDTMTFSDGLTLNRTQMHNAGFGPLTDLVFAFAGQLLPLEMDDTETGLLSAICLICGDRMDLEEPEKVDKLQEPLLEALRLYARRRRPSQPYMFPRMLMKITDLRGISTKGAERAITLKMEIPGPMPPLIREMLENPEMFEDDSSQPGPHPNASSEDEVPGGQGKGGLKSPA
# PDGFRα, sequence (P16234 24-1089, species assumed): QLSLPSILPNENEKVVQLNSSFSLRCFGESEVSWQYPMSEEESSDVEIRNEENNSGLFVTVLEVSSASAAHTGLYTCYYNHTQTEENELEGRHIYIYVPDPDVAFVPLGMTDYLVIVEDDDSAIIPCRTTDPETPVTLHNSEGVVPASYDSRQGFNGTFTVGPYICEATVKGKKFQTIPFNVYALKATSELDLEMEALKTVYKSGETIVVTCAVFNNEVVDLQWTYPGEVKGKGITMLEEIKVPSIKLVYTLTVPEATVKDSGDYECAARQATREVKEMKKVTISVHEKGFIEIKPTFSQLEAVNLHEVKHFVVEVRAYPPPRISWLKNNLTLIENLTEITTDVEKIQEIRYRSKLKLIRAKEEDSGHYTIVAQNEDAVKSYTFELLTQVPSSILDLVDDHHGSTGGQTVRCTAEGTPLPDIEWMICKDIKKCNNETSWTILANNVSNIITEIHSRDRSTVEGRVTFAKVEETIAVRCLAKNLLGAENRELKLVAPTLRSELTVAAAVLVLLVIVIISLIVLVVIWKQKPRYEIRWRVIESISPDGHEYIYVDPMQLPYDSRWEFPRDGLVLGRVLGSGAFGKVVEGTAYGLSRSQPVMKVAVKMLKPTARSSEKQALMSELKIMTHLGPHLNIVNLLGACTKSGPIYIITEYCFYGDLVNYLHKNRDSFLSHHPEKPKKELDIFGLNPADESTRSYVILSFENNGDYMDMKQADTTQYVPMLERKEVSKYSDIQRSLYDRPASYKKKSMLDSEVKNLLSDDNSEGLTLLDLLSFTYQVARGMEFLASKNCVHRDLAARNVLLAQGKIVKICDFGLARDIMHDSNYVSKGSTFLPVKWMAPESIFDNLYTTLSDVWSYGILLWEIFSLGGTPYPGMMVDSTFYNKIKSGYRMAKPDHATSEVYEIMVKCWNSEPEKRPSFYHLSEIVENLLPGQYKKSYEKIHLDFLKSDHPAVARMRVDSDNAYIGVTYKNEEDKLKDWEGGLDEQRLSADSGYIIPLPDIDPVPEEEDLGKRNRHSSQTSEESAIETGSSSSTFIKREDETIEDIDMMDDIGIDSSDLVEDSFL
# PKCδ, sequence (Q05655 whole entry): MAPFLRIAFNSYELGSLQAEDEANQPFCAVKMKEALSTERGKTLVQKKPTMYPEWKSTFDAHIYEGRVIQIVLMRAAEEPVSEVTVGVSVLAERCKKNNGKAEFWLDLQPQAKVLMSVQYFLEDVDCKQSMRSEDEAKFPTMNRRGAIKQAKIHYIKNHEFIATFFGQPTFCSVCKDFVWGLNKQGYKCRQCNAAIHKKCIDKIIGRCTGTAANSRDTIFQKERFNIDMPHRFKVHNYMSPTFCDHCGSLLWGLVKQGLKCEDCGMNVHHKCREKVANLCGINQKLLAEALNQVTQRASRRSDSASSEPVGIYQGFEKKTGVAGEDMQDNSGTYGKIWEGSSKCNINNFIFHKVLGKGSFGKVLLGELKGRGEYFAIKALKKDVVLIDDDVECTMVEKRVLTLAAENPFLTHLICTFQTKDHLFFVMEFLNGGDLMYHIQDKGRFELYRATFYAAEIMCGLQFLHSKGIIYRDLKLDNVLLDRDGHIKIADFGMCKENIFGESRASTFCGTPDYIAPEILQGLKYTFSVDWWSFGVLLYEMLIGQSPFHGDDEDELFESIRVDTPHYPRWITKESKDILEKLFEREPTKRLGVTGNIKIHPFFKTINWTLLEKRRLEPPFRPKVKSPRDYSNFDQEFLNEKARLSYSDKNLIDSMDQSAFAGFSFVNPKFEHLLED
# RARβ, sequence (P10826 whole entry, species assumed): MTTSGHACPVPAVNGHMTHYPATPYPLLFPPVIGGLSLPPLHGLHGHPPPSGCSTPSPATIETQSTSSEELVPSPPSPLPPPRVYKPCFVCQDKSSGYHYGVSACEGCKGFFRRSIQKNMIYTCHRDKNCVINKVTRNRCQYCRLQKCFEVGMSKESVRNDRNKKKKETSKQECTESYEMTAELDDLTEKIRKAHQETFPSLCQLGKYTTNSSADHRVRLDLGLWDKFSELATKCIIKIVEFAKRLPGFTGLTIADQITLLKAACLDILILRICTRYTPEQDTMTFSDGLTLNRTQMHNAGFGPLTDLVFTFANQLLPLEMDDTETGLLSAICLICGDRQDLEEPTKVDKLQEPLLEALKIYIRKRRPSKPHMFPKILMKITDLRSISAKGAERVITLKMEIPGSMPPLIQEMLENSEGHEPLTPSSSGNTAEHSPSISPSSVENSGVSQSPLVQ
# PDK1, sequence (O15530 whole entry): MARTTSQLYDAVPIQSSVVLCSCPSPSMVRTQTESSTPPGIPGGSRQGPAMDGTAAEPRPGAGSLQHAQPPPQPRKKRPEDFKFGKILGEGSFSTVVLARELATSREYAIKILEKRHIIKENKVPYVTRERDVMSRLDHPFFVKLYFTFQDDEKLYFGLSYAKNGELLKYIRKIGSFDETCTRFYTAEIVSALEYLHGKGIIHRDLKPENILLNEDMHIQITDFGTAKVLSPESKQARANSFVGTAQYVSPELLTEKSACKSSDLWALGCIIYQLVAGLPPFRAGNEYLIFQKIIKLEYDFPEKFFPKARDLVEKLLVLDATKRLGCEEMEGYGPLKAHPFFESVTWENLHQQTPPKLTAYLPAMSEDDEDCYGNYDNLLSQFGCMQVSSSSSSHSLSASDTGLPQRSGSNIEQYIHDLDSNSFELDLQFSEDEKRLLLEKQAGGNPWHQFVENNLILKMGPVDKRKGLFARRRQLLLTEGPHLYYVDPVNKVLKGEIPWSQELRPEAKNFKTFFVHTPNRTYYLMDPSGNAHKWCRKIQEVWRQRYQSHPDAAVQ
molecule,measurement,setting,value
CCOC(=O)C1=C(COCCN)NC(C)=C(C(=O)OC)C1c1ccccc1Cl (stereo not shown) [Amlodipine Besylate],"Fold change (Log 2) vs untreated, NAGS expression",[1]; [28],0.73 Log 2
same,IC50,[2],1.9 nM
COCCOCOc1cc2ccc(-c3ccc(C(=O)O)cc3)cc2cc1C12CC3CC(CC(C3)C1)C2 [CD 2665],"Fold change (Log 2) vs untreated, NAGS expression",[1],0.62 Log 2
same,Kd,[3],110 nM
same,Kd,[4],306 nM
same,Kd,[5],> 1000 nM
COCCOc1ccc2c(c1)ncn2-c1ccc2cccc(N3CCC(N)CC3)c2n1 [CP-673451],Relative CPS1 level vs Untreated (±Standard Deviation),"[6]; 10 uM, triplicate (Table 20, FIG. 12)",3.90 ± 0.97
same,"CPS1 expression, Fold change (Log 2) vs untreated",[6],1.77 Log 2
same,Relative OTC level vs Untreated (±Standard Deviation),"[7]; 10 uM, primary human hepatocytes, triplicate (Table 14)",3.36 ± 1.73
same,"increase in OTC gene expression (Table 14, FIG. 6)",[7]; [29],significant increase
same,"OTC expression, Fold change (Log 2) vs untreated",[7]; primary human hepatocytes,2.63 Log 2
same,Relative ASS1 level vs Untreated (±Standard Deviation),"[8]; 10 uM, primary human hepatocytes, triplicate (Table 15, FIG. 8)",2.13 ± 0.68
same,"Fold change (Log 2) vs untreated, ASS1 expression","[8]; primary human hepatocytes, RNA-seq (Table 4)",1.52 Log 2
same,Relative ASL level vs Untreated (±Standard Deviation),"[9]; 10 uM, triplicate (Table 25, FIG. 17)",2.94 ± 0.78
same,"ASL expression, Fold change (Log 2) vs untreated",[9]; RNA-seq,1.81 Log 2
same,"increase in ARG1 gene expression (Tables 17, 18, FIG. 9, 10)",[10]; [29],greatest increase
same,"Fold change (Log 2) vs untreated, ARG1 expression",[10],3.21 Log 2
same,"Fold change (Log 2) vs untreated, SLC25A15 expression",[11],0.76 Log 2
same,number of urea cycle genes whose expression was significantly up-regulated,[12],six
same,IC50,[13],10 nM
same,selectivity over other angiogenic receptors,[14],> 450 fold
COc1ccc2c(c1)c(C1=C(c3c[nH]c4ccccc34)C(=O)NC1=O)cn2CCCN(C)C [GO6983],"Fold change (Log 2) vs untreated, NAGS expression",[1]; [28],0.7 Log 2
same,IC50,[15],7 nM
same,IC50,[16],7 nM
same,IC50,[17],6 nM
same,IC50,[18],10 nM
Cc1ccc(C(=O)Nc2ccc(Oc3cc4cnn(C)c4cc3-c3cn[nH]c3)c(F)c2)c(=O)n1-c1ccc(F)cc1 [Merestinib],half life (t1/2),[19],8.75 h
NCC(=O)Nc1ccc(-n2nc(C(F)(F)F)cc2-c2ccc3c(ccc4ccccc43)c2)cc1 [OSU-03012],"Fold change (Log 2) vs untreated, NAGS expression",[1]; [28],1.03 Log 2
same,increase in potency over OSU-02067,[20],2 fold
CNC(=O)Nc1ccc(-c2nc(N3CC4CCC(C3)O4)c3cnn(C4CCC5(CC4)OCCO5)c3n2)cc1 [WYE-125132 (WYE-132)],"Fold change (Log 2) vs untreated, NAGS expression",[1]; [28],0.64 Log 2
same,IC50,[22],0.19 nM
GZD824 Dimesylate,IC50,[23],0.34 nM
same,IC50,[24],0.68 nM
IGF-1: Insulin-like growth factor I,"CPS1 expression, Fold change (Log 2) vs untreated",[6],2.22 Log 2
same,"OTC expression, Fold change (Log 2) vs untreated",[7]; primary human hepatocytes,0.76 Log 2
same,"Fold change (Log 2) vs untreated, ARG1 expression",[10],1.89 Log 2
same,"Fold change (Log 2) vs untreated, SLC25A15 expression",[11],0.8 Log 2
same,number of urea cycle genes whose expression was significantly up-regulated,[12],four
same,Up-regulated Genes,[12]; urea cycle-related genes significantly increased (Table 10),"CPS1, OTC, ARG1, SLC25A15"
same,Max fold change in OTC,[25],1.69 fold
IRF1 (DNA GAAAGTGAAAGT; siRNA; chemistry not given here; the letters are possibly those of the target site),Max fold change in OTC,[25],1.70 fold
SMAD3 (DNA YGTCTAGACA; siRNA; chemistry not given here; the letters are possibly those of the target site),Max fold change in OTC,[25],2.49 fold
"STAT1 (DNA NATTTCCNGGAAAT; target site or template, no part of the molecule; chemistry not given here)",OTC expression after knockdown in combination with JAK1,[26],increased
"STAT5A (DNA ATTTCTNAGAAA; target site or template, no part of the molecule; chemistry not given here)",OTC expression after knockdown in combination with JAK1,[26],increased
B1,OTC gene expression after IFN-γ,[27],dose-dependent decrease
same,OTC gene expression after IFN-γ,[27]; listed as IFNγ,decreases

# From patent publication US11266655B2, “Methods and compositions for treating urea cycle disorders” (Camp4 Therapeutics Corporation, priority 2019, dated 2022)
